According to publication PMC6268995, “(E)-5-Styryl-1H-indole and (E)-6-Styrylquinoline Derivatives Serve as Probes for β-Amyloid Plaques” (Molecules, 2012):
Entries after “also recorded” stand apart in the source; their conditions may differ. Read-outs that look alike come from different tables or passages of the source.

How the values were obtained:
Aβ1–40 aggregates = molecular target: T1, Aβ1–40 aggregates (Homo sapiens, UniProt P05067); assay: Competition binding assay on Aβ1–40 aggregates using [125I]TZDM as radio-ligand; settings: Aβ1–40 aggregates against [125I]TZDM; triplicate, mean ± SD
T1 construct: β-amyloid(1–40) were purchased from AnaSpec; purchased AnaSpec (San Jose, CA, USA)
T1 sequence (P05067 672-711 limits assumed): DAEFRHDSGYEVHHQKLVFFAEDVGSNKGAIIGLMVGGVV
Protocol: The lyophilized white powder of β-amyloid(1–40) were purchased from AnaSpec (San Jose, CA, USA). After reconstituted by adding basic buffer (1% NH4OH. 60–70 μL) to β-amyloid (1–40) (1 mg) aggregation of Aβ1–40 was carried out by gently dissolving Aβ1–40 (0.25 mg/mL) in a PBS buffer (pH 7.4). The solution was incubated at 37 °C for 72 h with gentle and constant shaking. Binding studies were carried out according to the procedure described previously with some modifications using [^125I]TZDM as the radiolabeled standard. […] The mixture was incubated at 37 °C for 2 h. […] Filters containing the bound ^125I ligand were counted in a γ-counter (WALLAC Wizard 1470, PerkinElmer Life Sciences, Waltham, MA, USA) with 75% counting efﬁciency. The IC50 values were determined using GraphPad Prism 5.0, and those for the inhibition constant (Ki) were calculated using the Cheng Prusoff equation: Ki = IC50/(1 + [L]/Kd).

Aβ plaques = Aβ plaques (Homo sapiens, UniProt P05067); assay: In vitro fluorescent staining of amyloid plaques in brain sections from transgenic mouse; assay type: binding, transgenic model mouse (APP/PS1); settings: brain sections 8 µm, APP/PS1, 12 months, male; 1 µM
Aβ plaques, sequence (P05067 672-711 limits assumed): as above
Protocol: Parafﬁn-embedded brain sections of transgenic model mouse (8 µm, APP/PS1, 12 months, male) were used for the in vitro fluorescent staining of amyloid plaques. The brain sections were deparafﬁnized with xylene, ethanol and distilled water. After immersion in PBS (0.02 M, pH 7.4) for 30 min, the brain sections were incubated with 20% ethanol solution (1 µM) of compound 8 for 10 min. The localization of plaques was confirmed by staining with thioﬂavin-S on the adjacent sections. Finally, the sections were washed with 40% ethanol and PBS (0.02 M, pH 7.4). Fluorescent observation was performed by a Stereo Discovery V12 instrument (Zeiss, Oberkochen, Germany) equipped with a LP 505 filter set (excitation, 405 nm).

[1] = design: method as in PMID 12519062; settings: normal mice, cited from earlier work
[2] = In vivo biodistribution in normal mice; design: species or system KunMing normal mice; settings: iv injection
Protocol: In vivo biodistribution studies were performed in KunMing normal mice (female, average weight 18–22 g) and in accordance with the national laws related to the care and experiments on laboratory animal. A saline solution (100 µL) containing [^125I]8 or [^125I]17 (1 µCi) was injected directly into the tail vein of mice. The mice (n = 5 for each time point) were sacriﬁced at designated time points post-injection. The organs of interest were removed and weighed, and the radioactivity was counted with an automatic γ-counter (WALLAC Wizard 1470).

[3] = Partition coefficient determination (n-octanol/PBS); assay type: physicochemical; settings: n-octanol / PBS 0.02 M, pH 7.4
Protocol: The determination of partition coefﬁcients of [^125I]8 and [^125I]17 was performed according to the procedure previously reported with some modifications. Ligand [^125I]8 or [^125I]17 (~5 μCi) was mixed with 3 mL each of n-octanol and PBS (0.02 M, pH 7.4) in a test tube. The test tube was vortexed for 5 min at room temperature, followed by centrifugation for 10 min at 3,000 rpm. Two weighed samples from the n-octanol (50 µL) and buffer layers (400 µL) were counted in a γ-counter. The partition coefﬁcient was expressed as the logarithm of the ratio of the counts per gram from n-octanol versus that of PBS. Samples from the n-octanol layer were repartitioned until consistent partition coefﬁcient values were obtained. The measurements were done in triplicate and repeated three times.

Question: For C(=C\c1ccc2[nH]ccc2c1)/c1ccccc1 [Compound 4, (E)-5-Styryl-1H-indole], which melting point is on record?
Answer: 162 to 163 °C

Question: And the Ki (Aβ1–40 aggregates)?
Answer: 25.1 ± 2.1 nM

Question: Which Ki (Aβ1–40 aggregates) does the source give for Fc1ccc(/C=C/c2ccc3[nH]ccc3c2)cc1 [Compound 5, (E)-5-(4-Fluorostyryl)-1H-indole] here?
Answer: 89.3 ± 2.6 nM

Question: For Clc1ccc(/C=C/c2ccc3[nH]ccc3c2)cc1 [Compound 6, (E)-5-(4-Chlorostyryl)-1H-indole], which Ki (Aβ1–40 aggregates) is on record?
Answer: 51.5 ± 1 nM

Question: Which melting point does the source give for Brc1ccc(/C=C/c2ccc3[nH]ccc3c2)cc1 [Compound 7, (E)-5-(4-Bromostyryl)-1H-indole] here?
Answer: 215 to 216 °C

Question: And the Ki (Aβ1–40 aggregates)?
Answer: 16.3 ± 1.7 nM

Question: With Ic1ccc(/C=C/c2ccc3[nH]ccc3c2)cc1 [Compound 8, (E)-5-(4-Iodostyryl)-1H-indole] as the molecule, how does the melting point read?
Answer: 211 to 212 °C

Question: What about the Ki (Aβ1–40 aggregates) of the same molecule?
Answer: 4.1 ± 0.2 nM

Question: And the “Fluorescent staining of Aβ plaques” value (Aβ plaques)?
Answer: specific binding to Aβplaques; also recorded: clearly stained Aβ plaques

Question: For COc1ccc(/C=C/c2ccc3[nH]ccc3c2)cc1 [Compound 10, (E)-5-(4-Methoxystyryl)-1H-indole], which Ki (Aβ1–40 aggregates) is on record?
Answer: 32.4 ± 1.9 nM

Question: With Fc1ccc(/C=C/c2ccc3ncccc3c2)cc1 [Compound 14, (E)-6-(4-Fluorostyryl)quinoline] as the molecule, how does the Ki (Aβ1–40 aggregates) read?
Answer: 270.4 ± 1.5 nM

Question: With Clc1ccc(/C=C/c2ccc3ncccc3c2)cc1 [Compound 15, (E)-6-(4-Chlorostyryl)quinoline] as the molecule, how does the Ki (Aβ1–40 aggregates) read?
Answer: 45 ± 1.3 nM

Question: With Brc1ccc(/C=C/c2ccc3ncccc3c2)cc1 [Compound 16, (E)-6-(4-Bromostyryl)quinoline] as the molecule, how does the Ki (Aβ1–40 aggregates) read?
Answer: 23.5 ± 1.3 nM

Question: Which melting point does the source give for Ic1ccc(/C=C/c2ccc3ncccc3c2)cc1 [Compound 17, (E)-6-(4-Iodostyryl)quinoline] here?
Answer: 173 to 174 °C

Question: What about the Ki (Aβ1–40 aggregates) of the same molecule?
Answer: 8.6 ± 1.2 nM

Question: For Cc1ccc(/C=C/c2ccc3ncccc3c2)cc1 [Compound 18, (E)-6-(4-Methylstyryl)quinoline], which Ki (Aβ1–40 aggregates) is on record?
Answer: 288.4 ± 1.3 nM

Question: Which brain uptake ([1]; 2 min postinjection ref 16) does the source give for CN(C)c1ccc(-c2cn3cc([123I])ccc3n2)cc1 [[^123I]IMPY] here?
Answer: 2.88 % ID/organ

Question: And the brain uptake ([1]; 60 min postinjection ref 16)?
Answer: 0.21 % ID/organ

Question: What about the brain2min/brain60min ratio ([1]; from literature values ref 16) of the same molecule?
Answer: 13.7

Question: For [125I]c1ccc(/C=C/c2ccc3ncccc3c2)cc1 [[^125I]17], which “Biodistribution Blood” value ([2]; 2 min) is on record?
Answer: 11.39 ± 1.56 % ID/g

Question: And the “Biodistribution Brain” value ([2]; 2 min)?
Answer: 2.05 ± 0.25 % ID/g

Question: What about the “Biodistribution Heart” value ([2]; 2 min) of the same molecule?
Answer: 7.70 ± 0.86 % ID/g

Question: And the “Biodistribution Kidney” value ([2]; 2 min)?
Answer: 15.01 ± 1.56 % ID/g

Question: And the “Biodistribution Liver” value ([2]; 2 min)?
Answer: 22.45 ± 1.79 % ID/g

Question: What about the “Biodistribution Lung” value ([2]; 2 min) of the same molecule?
Answer: 13.56 ± 1.71 % ID/g

Question: And the “Biodistribution Muscle” value ([2]; 2 min)?
Answer: 2.78 ± 0.42 % ID/g

Question: And the “Biodistribution Spleen” value ([2]; 2 min)?
Answer: 5.88 ± 0.30 % ID/g

Question: And the “Biodistribution Stomach” value ([2]; 2 min)?
Answer: 4.05 ± 0.09 % ID/organ

Question: And the “Biodistribution Blood” value ([2]; 15 min)?
Answer: 6.31 ± 0.51 % ID/g

Question: And the “Biodistribution Brain” value ([2]; 15 min)?
Answer: 1.18 ± 0.17 % ID/g

Question: And the “Biodistribution Heart” value ([2]; 15 min)?
Answer: 3.80 ± 0.12 % ID/g

Question: What about the “Biodistribution Kidney” value ([2]; 15 min) of the same molecule?
Answer: 7.47 ± 1.01 % ID/g

Question: What about the “Biodistribution Liver” value ([2]; 15 min) of the same molecule?
Answer: 9.95 ± 0.18 % ID/g

Question: And the “Biodistribution Lung” value ([2]; 15 min)?
Answer: 6.42 ± 0.47 % ID/g

Question: And the “Biodistribution Muscle” value ([2]; 15 min)?
Answer: 1.68 ± 0.20 % ID/g

Question: And the “Biodistribution Spleen” value ([2]; 15 min)?
Answer: 5.91 ± 0.58 % ID/g

Question: What about the “Biodistribution Stomach” value ([2]; 15 min) of the same molecule?
Answer: 15.84 ± 0.78 % ID/organ

Question: What about the “Biodistribution Blood” value ([2]; 30 min) of the same molecule?
Answer: 5.80 ± 0.37 % ID/g

Question: What about the “Biodistribution Brain” value ([2]; 30 min) of the same molecule?
Answer: 0.93 ± 0.13 % ID/g

Question: What about the “Biodistribution Heart” value ([2]; 30 min) of the same molecule?
Answer: 3.21 ± 0.11 % ID/g

Question: And the “Biodistribution Kidney” value ([2]; 30 min)?
Answer: 6.57 ± 0.50 % ID/g

Question: What about the “Biodistribution Liver” value ([2]; 30 min) of the same molecule?
Answer: 9.12 ± 0.53 % ID/g

Question: What about the “Biodistribution Lung” value ([2]; 30 min) of the same molecule?
Answer: 5.64 ± 0.41 % ID/g

Question: What about the “Biodistribution Muscle” value ([2]; 30 min) of the same molecule?
Answer: 2.30 ± 0.32 % ID/g

Question: What about the “Biodistribution Spleen” value ([2]; 30 min) of the same molecule?
Answer: 4.66 ± 0.52 % ID/g

Question: What about the “Biodistribution Stomach” value ([2]; 30 min) of the same molecule?
Answer: 8.11 ± 1.21 % ID/organ

Question: What about the “Biodistribution Blood” value ([2]; 60 min) of the same molecule?
Answer: 3.86 ± 0.74 % ID/g

Question: And the “Biodistribution Brain” value ([2]; 60 min)?
Answer: 0.55 ± 0.11 % ID/g

Question: What about the “Biodistribution Heart” value ([2]; 60 min) of the same molecule?
Answer: 2.55 ± 0.21 % ID/g

Question: What about the “Biodistribution Kidney” value ([2]; 60 min) of the same molecule?
Answer: 4.72 ± 0.69 % ID/g

Question: What about the “Biodistribution Liver” value ([2]; 60 min) of the same molecule?
Answer: 6.97 ± 0.28 % ID/g

Question: And the “Biodistribution Lung” value ([2]; 60 min)?
Answer: 4.55 ± 0.49 % ID/g

Question: What about the “Biodistribution Muscle” value ([2]; 60 min) of the same molecule?
Answer: 1.40 ± 0.34 % ID/g

Question: And the “Biodistribution Spleen” value ([2]; 60 min)?
Answer: 4.71 ± 0.97 % ID/g

Question: And the “Biodistribution Stomach” value ([2]; 60 min)?
Answer: 6.75 ± 0.43 % ID/organ

Question: What about the “Biodistribution Blood” value ([2]; 120 min) of the same molecule?
Answer: 1.97 ± 0.35 % ID/g

Question: And the “Biodistribution Brain” value ([2]; 120 min)?
Answer: 0.26 ± 0.03 % ID/g

Question: What about the “Biodistribution Heart” value ([2]; 120 min) of the same molecule?
Answer: 1.33 ± 0.06 % ID/g

Question: What about the “Biodistribution Kidney” value ([2]; 120 min) of the same molecule?
Answer: 2.20 ± 0.34 % ID/g

Question: What about the “Biodistribution Liver” value ([2]; 120 min) of the same molecule?
Answer: 3.93 ± 0.46 % ID/g

Question: What about the “Biodistribution Lung” value ([2]; 120 min) of the same molecule?
Answer: 2.01 ± 0.18 % ID/g

Question: And the “Biodistribution Muscle” value ([2]; 120 min)?
Answer: 0.72 ± 0.21 % ID/g

Question: What about the “Biodistribution Spleen” value ([2]; 120 min) of the same molecule?
Answer: 2.25 ± 0.36 % ID/g

Question: What about the “Biodistribution Stomach” value ([2]; 120 min) of the same molecule?
Answer: 11.12 ± 2.48 % ID/organ

Question: What about the “Biodistribution Blood” value ([2]; 240 min) of the same molecule?
Answer: 1.38 ± 0.24 % ID/g

Question: What about the “Biodistribution Brain” value ([2]; 240 min) of the same molecule?
Answer: 0.14 ± 0.02 % ID/g

Question: What about the “Biodistribution Heart” value ([2]; 240 min) of the same molecule?
Answer: 0.80 ± 0.19 % ID/g

Question: And the “Biodistribution Kidney” value ([2]; 240 min)?
Answer: 1.64 ± 0.23 % ID/g

Question: What about the “Biodistribution Liver” value ([2]; 240 min) of the same molecule?
Answer: 2.96 ± 0.28 % ID/g

Question: And the “Biodistribution Lung” value ([2]; 240 min)?
Answer: 1.43 ± 0.28 % ID/g

Question: What about the “Biodistribution Muscle” value ([2]; 240 min) of the same molecule?
Answer: 0.61 ± 0.08 % ID/g

Question: And the “Biodistribution Spleen” value ([2]; 240 min)?
Answer: 1.59 ± 0.17 % ID/g

Question: And the “Biodistribution Stomach” value ([2]; 240 min)?
Answer: 7.03 ± 1.51 % ID/organ

Question: And the logD [3]?
Answer: 2.73

Question: With “(E)-5-(4-Methoxystyryl)-1H-indole [Compound 9]” as the molecule, how does the Ki (Aβ1–40 aggregates) read?
Answer: 15.8 ± 1.5 nM
